Test results published in publication PMC10425802 (Genes & Diseases, 2023).

Assays:
Assay in all cases: mobility shift kinase assay
Format in all cases: biochemical
FGFR1 = FGFR1 (Homo sapiens, UniProt P11362)
FGFR3 = FGFR3 (Homo sapiens, UniProt P22607)
FGFR2 = FGFR2 (Homo sapiens, UniProt P21802)
Sequence of FGFR2 (P21802 22-821): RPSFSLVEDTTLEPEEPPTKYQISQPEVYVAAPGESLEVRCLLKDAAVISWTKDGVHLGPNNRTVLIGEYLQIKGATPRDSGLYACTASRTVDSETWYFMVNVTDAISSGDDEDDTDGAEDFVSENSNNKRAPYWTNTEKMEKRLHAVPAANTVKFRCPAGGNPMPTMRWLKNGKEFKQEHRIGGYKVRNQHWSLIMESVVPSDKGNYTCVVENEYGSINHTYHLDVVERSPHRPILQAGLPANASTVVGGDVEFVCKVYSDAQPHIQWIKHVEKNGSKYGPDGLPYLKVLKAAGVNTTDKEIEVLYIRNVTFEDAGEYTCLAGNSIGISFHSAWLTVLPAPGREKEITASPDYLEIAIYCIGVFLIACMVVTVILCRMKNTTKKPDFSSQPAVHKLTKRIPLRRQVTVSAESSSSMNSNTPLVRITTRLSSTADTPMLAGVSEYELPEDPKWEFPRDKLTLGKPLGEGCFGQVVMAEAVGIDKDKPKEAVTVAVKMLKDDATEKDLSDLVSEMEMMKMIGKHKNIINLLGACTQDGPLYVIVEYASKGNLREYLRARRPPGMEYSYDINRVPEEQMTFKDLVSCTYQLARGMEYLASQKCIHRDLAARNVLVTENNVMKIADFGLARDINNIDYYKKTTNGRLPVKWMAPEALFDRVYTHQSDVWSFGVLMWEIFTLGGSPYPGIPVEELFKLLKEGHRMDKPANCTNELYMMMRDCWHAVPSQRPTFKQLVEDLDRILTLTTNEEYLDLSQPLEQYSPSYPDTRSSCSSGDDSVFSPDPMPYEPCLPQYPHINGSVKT

Sequence of FGFR3 (P22607 23-806): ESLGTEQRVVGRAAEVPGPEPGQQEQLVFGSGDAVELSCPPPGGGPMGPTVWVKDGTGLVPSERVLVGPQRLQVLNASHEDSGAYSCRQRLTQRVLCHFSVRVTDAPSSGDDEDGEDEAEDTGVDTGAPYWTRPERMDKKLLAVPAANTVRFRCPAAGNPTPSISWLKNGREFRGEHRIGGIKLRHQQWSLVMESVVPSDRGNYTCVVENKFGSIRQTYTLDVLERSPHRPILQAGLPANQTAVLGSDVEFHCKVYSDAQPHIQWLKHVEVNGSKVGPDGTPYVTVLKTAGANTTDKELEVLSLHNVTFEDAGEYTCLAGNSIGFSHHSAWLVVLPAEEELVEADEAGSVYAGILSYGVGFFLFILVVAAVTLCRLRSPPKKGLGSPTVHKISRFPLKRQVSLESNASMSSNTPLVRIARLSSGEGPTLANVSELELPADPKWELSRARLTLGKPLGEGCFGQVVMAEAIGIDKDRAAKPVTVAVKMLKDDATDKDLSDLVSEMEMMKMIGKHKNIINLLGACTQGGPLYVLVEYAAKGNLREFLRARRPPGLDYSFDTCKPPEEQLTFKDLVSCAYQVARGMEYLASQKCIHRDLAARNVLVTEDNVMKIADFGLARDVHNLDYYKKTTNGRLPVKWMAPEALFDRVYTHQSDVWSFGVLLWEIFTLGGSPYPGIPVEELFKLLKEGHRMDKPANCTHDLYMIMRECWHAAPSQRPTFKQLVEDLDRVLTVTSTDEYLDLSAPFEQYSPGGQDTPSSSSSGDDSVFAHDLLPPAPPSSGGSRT
Sequence of FGFR1 (P11362 22-822): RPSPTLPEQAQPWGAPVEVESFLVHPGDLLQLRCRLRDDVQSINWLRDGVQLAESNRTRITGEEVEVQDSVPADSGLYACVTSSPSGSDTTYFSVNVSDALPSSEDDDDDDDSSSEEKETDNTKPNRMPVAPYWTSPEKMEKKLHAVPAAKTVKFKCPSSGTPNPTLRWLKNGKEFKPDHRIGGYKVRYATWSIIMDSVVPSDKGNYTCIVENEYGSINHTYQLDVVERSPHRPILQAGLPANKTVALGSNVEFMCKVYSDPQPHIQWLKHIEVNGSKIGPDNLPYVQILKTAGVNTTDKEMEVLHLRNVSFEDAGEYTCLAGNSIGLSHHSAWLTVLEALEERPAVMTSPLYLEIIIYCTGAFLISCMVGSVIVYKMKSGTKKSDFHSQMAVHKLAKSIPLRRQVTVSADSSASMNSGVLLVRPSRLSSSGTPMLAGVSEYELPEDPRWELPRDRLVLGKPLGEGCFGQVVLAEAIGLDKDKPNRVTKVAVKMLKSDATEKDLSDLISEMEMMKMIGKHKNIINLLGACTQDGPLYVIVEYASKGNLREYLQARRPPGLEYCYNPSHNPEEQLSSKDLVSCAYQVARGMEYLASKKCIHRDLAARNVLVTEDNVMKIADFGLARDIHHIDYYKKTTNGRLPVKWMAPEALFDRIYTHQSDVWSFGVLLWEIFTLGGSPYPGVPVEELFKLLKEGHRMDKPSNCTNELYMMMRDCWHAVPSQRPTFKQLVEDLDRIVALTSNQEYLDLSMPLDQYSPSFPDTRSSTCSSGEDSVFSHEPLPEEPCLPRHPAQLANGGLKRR

IC50 (FGFR1): 28 nM | IC50 (FGFR3): 78 nM | IC50 (FGFR2): 28 nM
Substance: CYY292
